Test system: 192522-019-R-J2-PDC complex tumor spheroid viability
Test: Anticancer human tumor 192522-019-R-J2-PDC patient-derived colon adenocarcinoma cell line growth inhibition [POLQ]
Details: for IC50: curve of first compound; for viability, T/C: stronger effect = lower value
Outline: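 Complex spheroid viability model combining PDC tumour cells with endothelial (HUVEC) and MSC stromal cells. Novobiocin, ART-558 or RP6685 were tested singly and in combination with standard and investigational anticancer drugs. Each was titrated in half-log steps from near clinical Cmax, or from 10 microM where Cmax was unknown.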

[1] = second compound 0.0316 µM, first compound 0.0316 µM
[2] = second compound 0.0316 µM, first compound 0.1 µM
[3] = second compound 0.1 µM, first compound 0.0316 µM
[4] = second compound 0.1 µM, first compound 0.1 µM
[5] = second compound 0.316 µM, first compound 0.0316 µM
[6] = second compound 0.316 µM, first compound 0.1 µM
[7] = second compound 1 µM, first compound 0.0316 µM
[8] = second compound 1 µM, first compound 0.1 µM
[9] = second compound 3.16 µM, first compound 0.0316 µM
[10] = second compound 3.16 µM, first compound 0.1 µM
[11] = second compound 10 µM, first compound 0.0316 µM
[12] = second compound 10 µM, first compound 0.1 µM
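Further: spheroids exposed to drugs for seven days before reading.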
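Wherever viability, T/C is given: 100% = DMSO vehicle control viability in luminescence.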

In the case of `CC(=O)O[C@H]1C(=O)[C@@]2(C)[C@H]([C@H](OC(=O)c3ccccc3)[C@]3(O)C[C@H](OC(=O)[C@H](O)[C@@H](NC(=O)c4ccccc4)c4ccccc4)C(C)=C1C3(C)C)[C@]1(OC(C)=O)CO[C@@H]1C[C@@H]2O` + Nc1ccc(C#CCN(C(=O)Cc2ncc(C(F)(F)F)cc2C(F)(F)F)c2ccc(F)cc2)nn1, the IC50 (second compound 0.0316 µM) is reported as greater than 3 µM, the IC50 (second compound 0.1 µM) is reported as greater than 3 µM and the IC50 (second compound 0.316 µM) is reported as greater than 3 µM. For the same molecule, the IC50 (second compound 1 µM) was greater than 3 µM, the IC50 (second compound 3.16 µM) was greater than 3 µM and the IC50 (second compound 10 µM) was greater than 3 µM. For the same molecule, the viability, T/C (second compound 0.0316 µM, first compound 0.00949 µM) was 95.6%, the viability, T/C (second compound 0.0316 µM, first compound 0.03 µM) was 65.1% and the viability, T/C (second compound 0.0316 µM, first compound 0.0949 µM) was 50.2%. It also gave a viability, T/C (second compound 0.0316 µM, first compound 0.3 µM) of 57%, a viability, T/C (second compound 0.0316 µM, first compound 0.949 µM) of 56.9% and a viability, T/C (second compound 0.0316 µM, first compound 3 µM) of 60.2%. The viability, T/C (second compound 0.1 µM, first compound 0.00949 µM) was 95.3%, the viability, T/C (second compound 0.1 µM, first compound 0.03 µM) was 63.3% and the viability, T/C (second compound 0.1 µM, first compound 0.0949 µM) was 55.4%. For the same molecule, the viability, T/C (second compound 0.1 µM, first compound 0.3 µM) was 54.8%, the viability, T/C (second compound 0.1 µM, first compound 0.949 µM) was 61.2% and the viability, T/C (second compound 0.1 µM, first compound 3 µM) was 50.2%. It also gave a viability, T/C (second compound 0.316 µM, first compound 0.00949 µM) of 88.7%, a viability, T/C (second compound 0.316 µM, first compound 0.03 µM) of 69.6% and a viability, T/C (second compound 0.316 µM, first compound 0.0949 µM) of 54.2%. It also gave a viability, T/C (second compound 0.316 µM, first compound 0.3 µM) of 58.2%, a viability, T/C (second compound 0.316 µM, first compound 0.949 µM) of 57.9% and a viability, T/C (second compound 0.316 µM, first compound 3 µM) of 54.9%. It also gave a viability, T/C (second compound 1 µM, first compound 0.00949 µM) of 86.3%, a viability, T/C (second compound 1 µM, first compound 0.03 µM) of 62.6% and a viability, T/C (second compound 1 µM, first compound 0.0949 µM) of 53.7%. The viability, T/C (second compound 1 µM, first compound 0.3 µM) was 51.3%, the viability, T/C (second compound 1 µM, first compound 0.949 µM) was 57.4% and the viability, T/C (second compound 1 µM, first compound 3 µM) was 50.9%. It also gave a viability, T/C (second compound 3.16 µM, first compound 0.00949 µM) of 85.5%, a viability, T/C (second compound 3.16 µM, first compound 0.03 µM) of 65.7% and a viability, T/C (second compound 3.16 µM, first compound 0.0949 µM) of 55.8%. For the same molecule, the viability, T/C (second compound 3.16 µM, first compound 0.3 µM) was 54.6%, the viability, T/C (second compound 3.16 µM, first compound 0.949 µM) was 59.2% and the viability, T/C (second compound 3.16 µM, first compound 3 µM) was 56%. For the same molecule, the viability, T/C (second compound 10 µM, first compound 0.00949 µM) was 80%, the viability, T/C (second compound 10 µM, first compound 0.03 µM) was 66.3% and the viability, T/C (second compound 10 µM, first compound 0.0949 µM) was 60.2%. For the same molecule, the viability, T/C (second compound 10 µM, first compound 0.3 µM) was 61.2%, the viability, T/C (second compound 10 µM, first compound 0.949 µM) was 60.9% and the viability, T/C (second compound 10 µM, first compound 3 µM) was 56.5%.
`CC[C@@]1(O)C(=O)OCc2c1cc1n(c2=O)Cc2cc3c(CN(C)C)c(O)ccc3nc2-1` + Nc1ccc(C#CCN(C(=O)Cc2ncc(C(F)(F)F)cc2C(F)(F)F)c2ccc(F)cc2)nn1 was tested, and the IC50 (second compound 0.0316 µM) was greater than 0.1 µM, the IC50 (second compound 0.1 µM) was greater than 0.1 µM and the IC50 (second compound 0.316 µM) was greater than 0.1 µM. The IC50 (second compound 1 µM) was greater than 0.1 µM, the IC50 (second compound 3.16 µM) was greater than 0.1 µM and the IC50 (second compound 10 µM) was greater than 0.1 µM. It also gave a viability, T/C (second compound 0.0316 µM, first compound 0.000316 µM) of 96.2%, a viability, T/C (second compound 0.0316 µM, first compound 0.001 µM) of 103% and a viability, T/C (second compound 0.0316 µM, first compound 0.00316 µM) of 97.1%. The viability, T/C (second compound 0.0316 µM, first compound 0.01 µM) was 108%, the viability, T/C [1] was 98.5% and the viability, T/C [2] was 77.3%. The viability, T/C (second compound 0.1 µM, first compound 0.000316 µM) was 111%, the viability, T/C (second compound 0.1 µM, first compound 0.001 µM) was 105% and the viability, T/C (second compound 0.1 µM, first compound 0.00316 µM) was 103%. The viability, T/C (second compound 0.1 µM, first compound 0.01 µM) was 99%, the viability, T/C [3] was 107% and the viability, T/C [4] was 79.1%. It also gave a viability, T/C (second compound 0.316 µM, first compound 0.000316 µM) of 107%, a viability, T/C (second compound 0.316 µM, first compound 0.001 µM) of 109% and a viability, T/C (second compound 0.316 µM, first compound 0.00316 µM) of 97.8%. The viability, T/C (second compound 0.316 µM, first compound 0.01 µM) was 103%, the viability, T/C [5] was 95.7% and the viability, T/C [6] was 77.7%. It also gave a viability, T/C (second compound 1 µM, first compound 0.000316 µM) of 113%, a viability, T/C (second compound 1 µM, first compound 0.001 µM) of 104% and a viability, T/C (second compound 1 µM, first compound 0.00316 µM) of 106%. It also gave a viability, T/C (second compound 1 µM, first compound 0.01 µM) of 109%, a viability, T/C [7] of 97.8% and a viability, T/C [8] of 78.2%. For the same molecule, the viability, T/C (second compound 3.16 µM, first compound 0.000316 µM) was 99.6%, the viability, T/C (second compound 3.16 µM, first compound 0.001 µM) was 99.9% and the viability, T/C (second compound 3.16 µM, first compound 0.00316 µM) was 103%. The viability, T/C (second compound 3.16 µM, first compound 0.01 µM) was 99.3%, the viability, T/C [9] was 97.5% and the viability, T/C [10] was 84.8%. For the same molecule, the viability, T/C (second compound 10 µM, first compound 0.000316 µM) was 106%, the viability, T/C (second compound 10 µM, first compound 0.001 µM) was 94.7% and the viability, T/C (second compound 10 µM, first compound 0.00316 µM) was 101%. For the same molecule, the viability, T/C (second compound 10 µM, first compound 0.01 µM) was 95.1%, the viability, T/C [11] was 92.3% and the viability, T/C [12] was 87%.
Work on `COc1cc(C2c3cc4c(cc3C(OC3OC5COC(C)OC5C(O)C3O)C3COC(=O)C23)OCO4)cc(OC)c1O` (stereo unspecified) + Nc1ccc(C#CCN(C(=O)Cc2ncc(C(F)(F)F)cc2C(F)(F)F)c2ccc(F)cc2)nn1 yielded an IC50 (second compound 0.0316 µM) greater than 10 µM, an IC50 (second compound 0.1 µM) greater than 10 µM and an IC50 (second compound 0.316 µM) greater than 10 µM. The IC50 (second compound 1 µM) was greater than 10 µM, the IC50 (second compound 3.16 µM) was greater than 10 µM and the IC50 (second compound 10 µM) was greater than 10 µM. For the same molecule, the viability, T/C [1] was 105%, the viability, T/C [2] was 98.2% and the viability, T/C (second compound 0.0316 µM, first compound 0.316 µM) was 86.9%. For the same molecule, the viability, T/C (second compound 0.0316 µM, first compound 1 µM) was 83.2%, the viability, T/C (second compound 0.0316 µM, first compound 3.16 µM) was 68.9% and the viability, T/C (second compound 0.0316 µM, first compound 10 µM) was 77.8%. It also gave a viability, T/C [3] of 110%, a viability, T/C [4] of 92.2% and a viability, T/C (second compound 0.1 µM, first compound 0.316 µM) of 97.5%. The viability, T/C (second compound 0.1 µM, first compound 1 µM) was 93.4%, the viability, T/C (second compound 0.1 µM, first compound 3.16 µM) was 65.4% and the viability, T/C (second compound 0.1 µM, first compound 10 µM) was 80.4%. For the same molecule, the viability, T/C [5] was 106%, the viability, T/C [6] was 100% and the viability, T/C (second compound 0.316 µM, first compound 0.316 µM) was 96.4%. The viability, T/C (second compound 0.316 µM, first compound 1 µM) was 87%, the viability, T/C (second compound 0.316 µM, first compound 3.16 µM) was 67% and the viability, T/C (second compound 0.316 µM, first compound 10 µM) was 80%. For the same molecule, the viability, T/C [7] was 100%, the viability, T/C [8] was 91.9% and the viability, T/C (second compound 1 µM, first compound 0.316 µM) was 98.2%. For the same molecule, the viability, T/C (second compound 1 µM, first compound 1 µM) was 85.1%, the viability, T/C (second compound 1 µM, first compound 3.16 µM) was 73.9% and the viability, T/C (second compound 1 µM, first compound 10 µM) was 75%. The viability, T/C [9] was 109%, the viability, T/C [10] was 96.4% and the viability, T/C (second compound 3.16 µM, first compound 0.316 µM) was 95.9%. The viability, T/C (second compound 3.16 µM, first compound 1 µM) was 85.2%, the viability, T/C (second compound 3.16 µM, first compound 3.16 µM) was 72.7% and the viability, T/C (second compound 3.16 µM, first compound 10 µM) was 76.1%. It also gave a viability, T/C [11] of 104%, a viability, T/C [12] of 101% and a viability, T/C (second compound 10 µM, first compound 0.316 µM) of 96.9%. It also gave a viability, T/C (second compound 10 µM, first compound 1 µM) of 78.6%, a viability, T/C (second compound 10 µM, first compound 3.16 µM) of 79.7% and a viability, T/C (second compound 10 µM, first compound 10 µM) of 72.2%.

— PubChem BioAssay AID1963850 (Molecular Pharmacology Branch, DTP, NCI, 2024)
